Measured values from ChEMBL document CHEMBL1128864, “Antitumor activities of -, -monogalactosylceramides and four diastereomers of an -galactosylceramide” (1995).

Experiments:
Type in all cases: functional
Mus musculus [1] = organism: Mus musculus; test: Evaluated for lymphocyte proliferation stimulatory effect in BALB/c mice and percent control of [3H]TdR incorporation at dose 100 ng/ml using allogenic mixed lymphocyte reaction (MLR)
Mus musculus [2] = organism: Mus musculus; test: Evaluated for lymphocyte proliferation stimulatory effect in BALB/c mice and percent control of [3H]-TdR incorporation using allogenic mixed lymphocyte reaction (MLR) at a dose 10 ng/ml
Mus musculus [3] = organism: Mus musculus; test: Evaluated for lymphocyte proliferation stimulatory effect in BALB/c mice and percent control of [3H]TdR incorporation using allogenic mixed lymphocyte reaction (MLR) at a dose 1 ng/ml
Mus musculus [4] = test: Evaluated for life span prolonging effects against female BDF1 mice infected intraperitoneally 1x10E6 murine melanoma B16 cells on day 0 at dose of 0.1 mg/kg; conditions: route intraperitoneal
Mus musculus [5] = test: Evaluated for life span prolonging effects against female BDF1 mice infected intraperitoneally 1x10E6 murine melanoma B16 cells on day 0 at dose of 1 mg/kg; conditions: route intraperitoneal
Mus musculus [6] = test: Evaluated for life span prolonging effects against female BDF1 mice infected intraperitoneally 1x10E6 P388 cells on day 0 at intravenous dose 0.1 mg/kg on day 1,5,9
Mus musculus [7] = test: Percent of tumor growth inhibition ratio (TGIR)of the compound administered intravenously at dose 100 ug/kg(on day 7, 11,15) in subcutaneously infected BDF1 mice on day 14
Mus musculus [8] = test: Percent of tumor growth inhibition ratio (TGIR)of the compound administered intravenously at dose 100 ug/kg(on day 7, 11,15) in subcutaneously infected BDF1 mice on day 18
Mus musculus [9] = test: Percent of tumor growth inhibition ratio (TGIR)of the compound administered intravenously at dose 100 ug/kg(on day 7, 11,15) in subcutaneously infected BDF1 mice on day 22
Mus musculus [10] = test: Percent of tumor growth inhibition ratio (TGIR)of the compound administered intravenously at dose 100 ug/kg(on day 7, 11,15) in subcutaneously infected BDF1 mice on day 11

## CCCCCCC/C=C/C(C)=C/CC/C=C/[C@@H](O)[C@H](CO[C@H]1O[C@@H](CO)[C@H](O)[C@H](O)[C@@H]1O)NC(=O)[C@H](O)CCCCCCCCCCCCCCCCCCCCCC
Mus musculus [1]
  Control: 169%
Mus musculus [2]
  Control: 134%
Mus musculus [3]
  Control: 142%
Mus musculus [4]
  Survival: 21.3 days
  T/C: 115%
Mus musculus [5]
  Survival: 23.7 days
  T/C: 127%
Mus musculus [6]
  Survival: 11.3 days
  T/C: 109%

## CCCCCCCCCCCCCCCCCCCCCC[C@@H](O)C(=O)N[C@@H](CO[C@H]1O[C@@H](CO)[C@H](O)[C@H](O)[C@@H]1O)[C@H](O)[C@H](O)CCCCCCCCCCCC(C)C
Mus musculus [1]
  Control: 236%
Mus musculus [2]
  Control: 220%
Mus musculus [3]
  Control: 184%
Mus musculus [4]
  Survival: 27.6 days
  T/C: 149%
Mus musculus [5]
  Survival: 27 days
  T/C: 146%
Mus musculus [6]
  Survival: 11.3 days
  T/C: 109%

## CCCCCCCCCCCCCCCCCCCCCCCCCC(=O)N[C@@H](CO[C@H]1O[C@H](CO)[C@H](O)[C@H](O)[C@H]1O)[C@H](O)[C@H](O)CCCCCCCCCCCCCC [RGI-7000]
Mus musculus [7]
  TGIR: 50.9%
Mus musculus [8]
  TGIR: 51.1%
Mus musculus [9]
  TGIR: 40.2%
Mus musculus [10]
  TGIR: 41.1%

## CCCCCCCCCCCCCCCCCCCCCC[C@@H](O)C(=O)N[C@@H](CO[C@H]1O[C@@H](CO)[C@H](O)[C@H](O)[C@@H]1O)[C@H](O)[C@H](O)CCCCCCCCCCCC(C)CC (some centres not stated)
Mus musculus [1]
  Control: 255%
Mus musculus [2]
  Control: 209%
Mus musculus [3]
  Control: 179%
Mus musculus [4]
  Survival: 28.2 days
  T/C: 152%
Mus musculus [5]
  Survival: 34.5 days
  T/C: 187%
Mus musculus [6]
  Survival: 11.2 days
  T/C: 108%

## CCCCCCCCCCCCCCCCCCCCCC[C@@H](O)C(=O)N[C@@H](CO[C@H]1O[C@@H](CO)[C@H](O)[C@H](O)[C@@H]1O)[C@H](O)[C@H](O)CCCCCCCCCCCC
Mus musculus [1]
  Control: 350%
Mus musculus [2]
  Control: 258%
Mus musculus [3]
  Control: 253%
Mus musculus [4]
  Survival: 26.8 days
  T/C: 145%
Mus musculus [5]
  Survival: 31.5 days
  T/C: 170%
Mus musculus [6]
  Survival: 11 days
  T/C: 106%

## CCCCCCCCCCCCCCCCCCCCCCC[C@@H](O)C(=O)N[C@@H](CO[C@H]1O[C@@H](CO)[C@H](O)[C@H](O)[C@@H]1O)[C@H](O)[C@H](O)CCCCCCCCCCCC(C)CC (some centres not stated)
Mus musculus [1]
  Control: 319%
Mus musculus [2]
  Control: 281%
Mus musculus [3]
  Control: 233%
Mus musculus [4]
  Survival: 28 days
  T/C: 151%
Mus musculus [5]
  Survival: 32 days
  T/C: 173%
Mus musculus [6]
  Survival: 11.2 days
  T/C: 108%

## CCCCCCCCCCCCCC(=O)N[C@H](CO[C@H]1O[C@@H](CO)[C@H](O)[C@H](O)[C@@H]1O)[C@H](O)CCCCCCCCCCCCC
Mus musculus [7]
  TGIR: 13%
Mus musculus [8]
  TGIR: 11%
Mus musculus [9]
  TGIR: 5.1%

## CCCCCCCCCCCCCCCCCCCCCCCCCC(=O)N[C@@H](CO[C@H]1O[C@@H](CO)[C@H](O)[C@H](O)[C@@H]1O)[C@H](O)[C@H](O)CCCCCCCCCCCCCC
Mus musculus [7]
  TGIR: 17.2%
Mus musculus [8]
  TGIR: 20.3%
Mus musculus [9]
  TGIR: -3.8%
Mus musculus [10]
  TGIR: 16.1%

## CCCCCCCCCCCCCC(=O)N[C@@H](CO[C@H]1O[C@@H](CO)[C@H](O)[C@H](O)[C@@H]1O)[C@H](O)CCCCCCCCCCCCC
Mus musculus [7]
  TGIR: 66.6%
Mus musculus [8]
  TGIR: 66.4%
Mus musculus [9]
  TGIR: 67.9%
Mus musculus [10]
  TGIR: 76.5%

## CCCCCCCCCCCCCC(=O)N[C@@H](CO[C@H]1O[C@@H](CO)[C@H](O)[C@H](O)[C@@H]1O)[C@@H](O)CCCCCCCCCCCCC
Mus musculus [7]
  TGIR: 4.9%
Mus musculus [8]
  TGIR: 8.5%
Mus musculus [9]
  TGIR: 13.1%

## CCCCCCCCCCCCCC(=O)N[C@H](CO[C@H]1O[C@@H](CO)[C@H](O)[C@H](O)[C@@H]1O)[C@@H](O)CCCCCCCCCCCCC
Mus musculus [7]
  TGIR: 52.6%
Mus musculus [8]
  TGIR: 42.2%
Mus musculus [9]
  TGIR: 40.1%
Mus musculus [10]
  TGIR: 55.9%
